The source of these data is BindingDB's records for doi:10.1111/cbdd.12126 (Shaoyang University, 2013).

The target in this test is T1, Polyphenol oxidase 2 (Agaricus bisporus, UniProt O42713).
T1 sequence (O42713 whole entry): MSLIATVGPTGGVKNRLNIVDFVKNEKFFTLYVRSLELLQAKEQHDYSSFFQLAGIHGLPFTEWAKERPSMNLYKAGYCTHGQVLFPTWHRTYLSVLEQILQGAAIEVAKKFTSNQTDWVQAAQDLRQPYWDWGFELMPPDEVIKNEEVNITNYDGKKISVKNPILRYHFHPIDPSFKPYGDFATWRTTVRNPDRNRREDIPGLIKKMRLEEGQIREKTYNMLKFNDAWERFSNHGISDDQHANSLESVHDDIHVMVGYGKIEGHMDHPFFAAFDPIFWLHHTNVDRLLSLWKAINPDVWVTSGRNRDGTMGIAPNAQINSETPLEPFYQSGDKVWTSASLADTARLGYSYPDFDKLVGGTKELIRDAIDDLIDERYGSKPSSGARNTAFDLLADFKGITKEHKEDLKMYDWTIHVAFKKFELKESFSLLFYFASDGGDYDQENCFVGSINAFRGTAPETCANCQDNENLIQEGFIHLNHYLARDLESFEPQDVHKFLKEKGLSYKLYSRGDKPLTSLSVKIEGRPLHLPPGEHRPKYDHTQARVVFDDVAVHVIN
The test is described as follows: Spectrophotometric Assay. The note with it: pH 6.8; 25 °C. The method, then: All compounds were dissolved in DMSO (final DMSO concentration in test solution was 2.0%). Phosphate buffer, pH 6.8, was use to dilute the DMSO stock solution of test compounds. Thirty units of mushroom tyrosinase (0.5 mg/mL) were first pre-incubated with the compounds, in 50 mM phosphate buffer (pH 6.8), for 10 min at 25°C, followed by addition of L-DOPA (0.5 mM). The enzyme reaction was monitored by measuring the change in absorbance at 475 nm of formation of the DOPA chrome for 1 min. The measurement was performed in triplicate for each concentration and averaged before further calculation.

`O=C(/C=C/c1ccccc1)c1ccc(O)cc1O` [1-(2,4-dihydroxyphenyl)-3-phenylprop-2-en-1-one (4)] came in with an IC50 of 110 µM.
Consider `O=C(/C=C/c1ccccc1)c1cccc(Cl)c1` [1-(3-chlorophenyl)-3-phenylprop-2-en-1-one (11)], for which 117 µM corresponded to half-maximal inhibition (IC50).
`COc1ccc(C(=O)/C=C/c2ccccc2)cc1` [1-(4-methoxyphenyl)-3-phenylprop-2-en-1-one (6)] had an IC50 of 142 µM.

In general, IC50 refers to the concentration that inhibits the measured activity by half.
